The text below walks through data of patent publication US20240123036A1, “COMPOSITIONS AND METHODS FOR THE TREATMENT OF GRAFT VERSUS HOST DISEASE” (VectivBio AG, priority 2021, published 2024).

For test [1], the system named is blood cells of Balb/c mice. The test can be described thus: Cytarabine-induced immunosuppression, blood cell counts in Balb/c mice (Example 5, second experiment). The class given is in vivo, mouse. Further details: reduction in lymphocytes / Red blood cells, percentage difference from control / Platelets, percentage difference from control / White blood cells, percentage difference from control / Lymphocytes, percentage difference from control / Neutrophils, percentage difference from control: concentration or dose not given beside the values. How it is done: In a second experiment, apraglutide's effect on the ability of cytarabine to induce immunosuppression was assessed. The experiment included three groups of Balb/c mice: (A) vehicle; (B) cytarabine on Days 5-9; (C) cytarabine on Days 5-9, concomitant apraglutide on Days 5-18. RBC, platelets, WBC, NEU and LYMPH were assessed. A cohort was allowed to survive for 4 weeks to assess the effect of apraglutide on immunosuppression recovery (FIG. 12).

For test [2], the system named is fecal microbiota (Bacteroidetes, Firmicutes) of Balb/c mice. The settings on record: feces.
Test [3] relates to human leukemia cells (hCD45+) in NOD/SCID mice. The settings on record: Day 7; cytarabine Days 0-4; apraglutide or vehicle Days -4 to 4.
Description: In a first experiment, cytarabine' s anti-tumor effects were assessed in leukemic NOD/SCID mice (FIG. 11a). Apraglutide or vehicle was administered on Days -4 to 4. Cytarabine or vehicle was administered on Days 0-4. Bone marrow and spleen samples were collected on Day 7 and percentage of hCD45+ cells determined.
The test system of test [4] is cytarabine-induced damage in BALB/cJ female mice. The settings on record: for polymorphonuclear (PMN) cell count: cytarabine 30 mg/kg twice per day, alone or combined with hGLP-2 or apraglutide, FIG. 20.
Description: In a first experiment BALB/cJ female mice were separated into six groups for a dose-response study to assess the pharmacologic effect of increasing doses of apraglutide (0.11, 0.3 and 1.1 mg/kg) administered subcutaneously. Cytarabine was administered intraperitoneally at 30 mg/kg twice per day for 5 days (Day 0 to Day +4). Apraglutide was administered daily for a total of nine days, 4 days before and 5 days during the administration of chemotherapy (Day −4 to Day +4). Apraglutide effect was compared to unmodified hGLP-2 which was administered twice daily from Day −4 to Day +4, at a nominal dose of 0.60 mg/kg and combined with cytarabine.
Test [5] has as its system acute gastrointestinal GvHD in BALB/cJ male mice. The test can be described thus: Acute GvHD mouse model, 8.5 Gy irradiation plus allogeneic bone marrow/spleen cell transplant (Example 1, first experiment). The class given is in vivo. How it is done:
Mouse #3 (Group A), #13 (Group B) and #20 (Group B) were administered the cells by subcutaneous injection rather than intravenously. Mouse #5 (Group B) and #10 (Group B) received half the cells by intravenous injection and half by subcutaneous injection.
Following sacrifice of the mice, the colon lengths of the mice in Group A and Group B, as well as a control group of BALB/c mice (untreated), were measured. […] Thus, treatment with apraglutide protected the mice in Group A from a reduction in colon length, which is typically attributed to the inflammation caused by acute, gastrointestinal GvHD.
Various histological parameters of the jejunum were also measured, including single cell necrosis levels, necrosis of all crypts, shortening of villi, cryptal hyperplasia (regenerative), cell infiltrate, and cryptal abscess. These histological parameters were graded on a standard histological grading system (1 to 3). […] These indicate that the administration of apraglutide has a protective effective against jejunal mucosal damages induced by irradiation and GvHD.

The test system is the same in test [6]. The test can be described thus: Acute GvHD mouse model, 7.0 Gy irradiation plus allogeneic transplant (Example 1, second experiment). The class given is in vivo. From the text: FIG. 3a-3b is a series of graphs showing colon length and small intestine length in an acute GvHD mouse model following treatment with apraglutide. Data are shown as the mean ±SEM length of intestinal colon. N-5-10/group. Each dot represents data for one mouse.
FIG. 14 is a series of graphs showing that treatment with apraglutide improves animal survival of TBI/BMT treated animals. Kaplan-Meier curves—Animal survival was monitored daily. N=10 at time=0 for each treatment group. […] When comparing to the control group, survival of TBI/BMT was significant different ### p=0.0007. BMT=b one marrow transplant; TBI=total body irradiation.

Test [7] deals with hPBMC engraftment in NOG mice. The test can be described thus: Engraftment of human PBMC in total-body-irradiated NOG mice (Example 2, first experiment). The class given is in vivo, mouse. How it is done: Engraftment rate was determined through CD45 expression in blood, bone marrow and spleen.
For test [8], the system named is GvHD-induced intestinal damage in BALB/cJ mice. Kind of test: TBI-induced intestinal damage and allogeneic transplantation in BALB/cJ mice (Example 2, second experiment). The class given is in vivo, mouse.
Description: Intestinal damage indicative of GvHD (histological changes, length, hemorrhage, inflammation), body weight, and survival were assessed.
The test system of test [9] is chemotherapy-induced gastrointestinal damage in Balb/c mice. The test can be described thus: Chemotherapy-induced (cytarabine or melphalan) intestinal damage in Balb/c mice (Example 3). The class given is in vivo, mouse. How it is done:
In a first experiment, 4 groups of Balb/c mice: (A) vehicle only; (B) cytarabine on Days 5-9, no apraglutide given; (C) cytarabine on Days 5-9; concomitant apraglutide on Days 5-18; (D) cytarabine on Days 5-9; pre-treatment apraglutide on Days 1, 3, and continued as concomitant treatment on Days 5, 8, 11, 14, and 17. Treatment groups were dosed with 30 mg/kg cytarabine and/or apraglutide 3.3 mg/kg.
In a second experiment, 3 treatment groups of Balb/c mice: (A) vehicle only; (B) melphalan on Day 9, no apraglutide; (C) melphalan on Day 9; pre-treatment apraglutide on Days 1, 3, 5, 7 and continued as concomitant treatment on Days 9, 11, and 13.
In both models, mice that received vehicle without any treatment served as controls. Intestinal tissue histology, body weight, survival, and plasma citrulline, a marker of total mucosal mass and intestinal growth, was assessed in both models.

Test [10] relates to blood cells of Balb/c mice. The test can be described thus: Melphalan-induced immunosuppression in Balb/c mice (Example 5, third experiment). The class given is in vivo, mouse. How it is done: In a third experiment, the effect of apraglutide on melphalan-induced immunosuppression was assessed (FIG. 13). Three groups of Balb/c mice were included: (A) vehicle; (B) melphalan on Day 9; (C) melphalan on Day 9, apraglutide pre-treatment on Days 1, 3, 5, 7 and continued as co-administration on Days 9, 11, and 13. WBC, NEU and LYMPH were assessed.

Where [11] appears, read: Day 18 (post-treatment), cytarabine 30 mg/kg Days 5-9, apraglutide 3.3 mg/kg Days 1-18.
Setting [12] is: melphalan on Day 9, with or without apraglutide.

Read-outs that look alike come from different tables or passages of the source. Square brackets hold non-standard residues; d marks the D form. Peptide text beside a SMILES is read from it. ξ: configuration not given here. Ile(3ξ) = CCC(C)[C@H](N)C(=O)O; Thr(3ξ) = CC(O)[C@H](N)C(=O)O; Nle = CCCC[C@H](N)C(=O)O

In the case of `Nc1ccn([C@@H]2O[C@H](CO)[C@@H](O)[C@@H]2O)c(=O)n1` [Cytarabine only, Cytarabine], in test [1] (at treatment end), the “Lymphocytes, percentage difference from control” value is −91%; the “Neutrophils, percentage difference from control” value was −82%; the “Platelets, percentage difference from control” value is given as −68%; the “Red blood cells, percentage difference from control” value is −23%. The “White blood cells, percentage difference from control” value in test [1] (at treatment end) is given as −89%. Moreover, in test [1] (end of the treatment period), the reduction in lymphocytes worked out at 91%. Further, in [2] (Day 0 (pre-treatment)), the “Mean % of taxa at the Phylum level, Bacteroidetes, Day 0” value amounted to 16.3% and the “Mean % of taxa at the Phylum level, Firmicutes, Day 0” value is given as 78.7%. Also, in test [2] (setting [11]), the “Mean % of taxa at the Phylum level, Bacteroidetes, Day 18” value turned out to be 48.7% and the “Mean % of taxa at the Phylum level, Firmicutes, Day 18” value was determined as 49.5%. The “percentage of hCD45 in bone marrow after chemotherapy” value in test [3] is reported as 35.5±4%. Moreover, the “polymorphonuclear (PMN) cell count” value in test [4] is on record as “depleted”.

For the molecule `CCCC[C@H](NC(=O)[C@H](CCC(=O)O)NC(=O)[C@H](CC(=O)O)NC(=O)[C@H](CO)NC(=O)[C@H](Cc1ccccc1)NC(=O)[C@H](CO)NC(=O)CNC(=O)[C@H](CC(=O)O)NC(=O)CNC(=O)[C@@H](N)Cc1c[nH]cn1)C(=O)N[C@H](Cc1ccccc1)C(=O)N[C@H](C(=O)N[C@H](C(=O)N[C@@H](CC(C)C)C(=O)N[C@@H](CC(=O)O)C(=O)N[C@@H](CC(C)C)C(=O)N[C@@H](CC(C)C)C(=O)N[C@@H](C)C(=O)N[C@@H](C)C(=O)N[C@@H](CCCNC(=N)N)C(=O)N[C@@H](CC(=O)O)C(=O)N[C@@H](Cc1ccccc1)C(=O)N[C@H](C(=O)N[C@@H](CC(N)=O)C(=O)N[C@@H](Cc1c[nH]c2ccccc12)C(=O)N[C@@H](CC(C)C)C(=O)N[C@H](C(=O)N[C@@H](CCC(N)=O)C(=O)N[C@H](C(=O)N[C@@H](CCCCN)C(=O)N[C@H](C(=O)N[C@H](C(=O)N[C@@H](CC(=O)O)C(N)=O)C(C)O)C(C)CC)C(C)O)C(C)CC)C(C)CC)C(C)CC)C(C)O` (stereo partly drawn) [apraglutide] (H-HGDGSFSDE[Nle][dF][Thr(3ξ)][Ile(3ξ)]LDLLAARDF[Ile(3ξ)]NWL[Ile(3ξ)]Q[Thr(3ξ)]K[Ile(3ξ)][Thr(3ξ)]D-NH2), in [5] (apraglutide 3 mg/kg s.c. every second day Day -9 to +7, 8.5 Gy, vs vehicle group and untreated control mice, FIG. 1), the colon length entry was “increased colon lengths that were nearly the same as the control mice”. For the same molecule, the “overall mean severity score of mucosal degenerative/inflammatory changes in the jejunum” value in test [5] (apraglutide 3 mg/kg s.c., compared with vehicle, histological grading 1 to 3) is given as “slightly decreased”. The “mean severity score of the regenerative cryptal hyperplasia” value in [5] (jejunum, apraglutide 3 mg/kg s.c., compared with vehicle) is recorded as “slightly increased”. Moreover, in test [6] (Group A (apraglutide)), the “body weight of mice surviving beyond Day 9” value is on record as “regained body weight”. For the same molecule, the weight loss entry in test [6] (Group A (apraglutide) vs Group B (vehicle)) was “No significant difference”. Moreover, in test [6] (across the three Groups, FIG. 3), the “length of the small intestine” value was “no differences were observed”. Moreover, the median survival in test [6] (apraglutide 3 mg/kg s.c. every second day Day -9 to +7, 7.0 Gy + transplant) is given as 9 days. Also, in test [6] (apraglutide 3 mg/kg s.c., 7.0 Gy + transplant), the “mice survived past Day 9” value is recorded as 40%. Moreover, in [6] (apraglutide initiated before TBI/BMT, FIG. 14, p<0.03), the “animal survival (Kaplan-Meier, log-rank test)” value is “significant difference relative to TBI/BMT animals”. Also, the “mice showing an intestinal pathological score of 0” value in test [6] (macroscopic score 0 least severe to 4 most severe, Group A) is given as “four out of out of ten”. Besides, the “engraftment rate in blood, spleen and bone marrow” value in [7] (apraglutide 3.3 mg/kg Days -6 to 18, CD45 expression) is on record as “not affected”. Further, the “hCD45+ cells infiltration in the intestinal wall” value in test [7] (apraglutide vs vehicle) was “no difference”. Further, in [7] (at D20 in blood, range), the “engraftment rate in blood” value is listed as 22.2-47.6%. The lymphocyte engraftment entry in [8] (apraglutide 3.3 mg/kg Days -9 to +7) is on record as “successfully achieved”. Also, in test [8] (apraglutide 3.3 mg/kg, TBI + allogeneic transplantation), the mean colon length is reported as 8.6±0.35 cm. In [8] (apraglutide vs vehicle), the “mucosal degenerative/inflammatory changes (post-mortem histological examination)” value is on record as “less”. Besides, the overall survival is given as 40% in test [8] (on Day +9, p=0.0134 vs vehicle) and “improved” in test [9] (vs vehicle-only or chemotherapy-only groups, FIG. 9). Besides, the chemotherapy-induced weight loss entry in [9] (FIG. 8) is reported as “attenuated”. In test [9] (apraglutide 3.3 mg/kg co-administration, histology), the “degenerative intestinal changes (villi and crypt atrophy) caused by cytarabine or melphalan” value is listed as “reduced”. The “weight of duodenum, ileum and jejunum” value in [9] (with apraglutide) was “increased in weight”. For the same molecule, in [1] (4 weeks after the end of treatment), the “recovery of hematological parameters” value is “did not impact”. Further, the “impact on cytarabine- or melphalan-induced immunosuppression” value in test [10] (combination with apraglutide) is “no negative impact”. Also, the animal survival in [4] (apraglutide 0.11 mg/kg s.c. daily Day -4 to +4 with cytarabine 30 mg/kg i.p. twice per day Day 0 to +4) is recorded as 11/16; in [4] (apraglutide 0.33 mg/kg s.c. daily Day -4 to +4 with cytarabine 30 mg/kg i.p. twice per day Day 0 to +4), 14/16; in [4] (apraglutide 1.1 mg/kg s.c. daily Day -4 to +4 with cytarabine 30 mg/kg i.p. twice per day Day 0 to +4), 16/16. The citrulline concentrations result in test [4] (apraglutide 0.33 mg/kg and 1.1 mg/kg co-administered with cytarabine, compared to cytarabine alone, FIG. 19) is reported as “improvement”. In test [4] (combination with cytarabine, apraglutide 0.11 mg/kg, hGLP-2 0.60 mg/kg twice daily), the initial weight loss result is “did not decrease”. In addition, the “body weight and survival in animals recovering from cytarabine treatment” value in test [4] (combination with cytarabine, apraglutide 0.11 mg/kg, hGLP-2 0.60 mg/kg twice daily, FIG. 18) is “a trend towards increased body weight and survival”. The “polymorphonuclear (PMN) cell count” value in test [4] is “not reversed”.

Regarding `N[C@@H](Cc1ccc(N(CCCl)CCCl)cc1)C(=O)O` [melphalan, Melphalan], in [10] (setting [12]), the LYMPH vs vehicle result was “severe decreases” and the WBC vs vehicle result was “severe decreases”.
